Test results published in US10130611B2, “Use of benzo-heterocycle derivatives for preventing and treating cancer or for inhibiting cancer metastasis” (MEDICINAL BIOCONVERGENCE RESEARCH CENTER, priority 2009, dated 2018).

Experiments:
A549 cells = assay: Cell protein synthesis ([35S]methionine incorporation); format: cell-based, human; conditions: KL1 at indicated concentrations, [35S]methionine 2 hours
Method: On MMP2 activity (FIG. 37) and cell migration (FIGS. 38 and 39), KL1-dose-dependent effect was measured. For the test on the cell migration, the cells were treated with KL1 for 8 hours. In FIG. 40, in order to see the effect of KL1 on protein synthesis of cells, A549 cells were treated with KL1 at indicated concentrations, and starved in methionine-free medium. Then, [^35S] methionine was added thereto for 2 hours. Then, the cells were incubated in complete medium for 4 hours, and the level of added methionine was measured by a scintillation counter. In FIG. 41, KL1-dose-dependent cytotoxicity was measured by using A549 cells. In FIG. 42, the effect of KL1 on cancer metastasis was measured according to the method as described above. In each group, 6 mice were included, and KL1 was abdominally injected for 3 weeks, in a dose of 30 mg/kg once a day. Then, the mice were sacrificed. The metastasized tumor nodules over 1 mm in diameter were counted, and their average was calculated (left). The photograph of a representative lung is shown at the right side. […]
A549 cells were treated with the compound (2-[2-(4-methyl-benzoylimino)-benzothiazole-3-yl]-butyric acid, CAND-KL1 or KL1) represented by Formula 15, at indicated concentrations. […] They were lysed, and the radiation dose of lysed cells was measured by a scintillation counter.

MMP2 = MMP2 activity (zymography); format: cell-based, human; conditions: KL1 in different amounts
Method: On MMP2 activity (FIG. 37) and cell migration (FIGS. 38 and 39), KL1-dose-dependent effect was measured. For the test on the cell migration, the cells were treated with KL1 for 8 hours. In FIG. 40, in order to see the effect of KL1 on protein synthesis of cells, A549 cells were treated with KL1 at indicated concentrations, and starved in methionine-free medium. Then, [^35S] methionine was added thereto for 2 hours. Then, the cells were incubated in complete medium for 4 hours, and the level of added methionine was measured by a scintillation counter. In FIG. 41, KL1-dose-dependent cytotoxicity was measured by using A549 cells. In FIG. 42, the effect of KL1 on cancer metastasis was measured according to the method as described above. In each group, 6 mice were included, and KL1 was abdominally injected for 3 weeks, in a dose of 30 mg/kg once a day. Then, the mice were sacrificed. The metastasized tumor nodules over 1 mm in diameter were counted, and their average was calculated (left). The photograph of a representative lung is shown at the right side. In FIG. 43, on a KL1 treated group and a KL1 non-treated, primary tumors were observed.
A549 cells were transfected with the plasmids encoding the indicated siRNAs and recombinant KRS (or DRS) were incubated for 48 and 24 hours, respectively, and were inoculated to RPMI medium containing 10% FBS (1×10^5 cells/well). […]

GST-KRS = target: T1, GST-KRS (Homo sapiens, UniProt Q15046); assay: Surface plasmon resonance assay (BIAcore3000); conditions: GST-KRS immobilized on CM5 chip, binding to GST subtracted, 25° C., 1:1 binding
T1 construct: made in house; host or cells: E. coli Rosetta (DE3)
Method: As a control, an OD level of cells treated with DMSO was measured. FIG. 32 is a photograph showing cell growth in wells containing yeast cells having indicated interaction pairs in the presence or absence of CAND-KL1. In FIG. 33, in 293 cells, through co-immunoprecipitation, the KL1-dose-dependent effect on the interaction between KRS and 67LR was tested. The cells were treated with KL1 for 3 hours, 67LR was immunoprecipitated, and co-precipitation of KRS was determined by western blotting. In FIG. 34, in the presence of KL1 in indicated levels, a laminin receptor labeled with radioisotope was mixed with GST-KRS (1 μg). GST-KRS was precipitated with glutathione-Sepharose beads, and co-precipitated laminin receptor was detected with autoradiography. In FIG. 35, in A549 cells, the effect of KL1 on the intracellular level of 67LR and 37LRP was tested with western blotting. […] GST-KRS was immobilized on a CM5 Sensor Chip, and the binding was measured by a resonance unit (RU) at indicated concentrations (indicated by different colors). […]
The interaction between KRS and the compound (Formula 15) was tested by BIAcore3000 (GE healthcare). […] Then, the binding was measured by a change in a resonance unit (RU). The specific binding activity of CAND-KL1 to GST-KRS was measured by subtracting binding to GST in sensorgram. […]

T1 sequence (Q15046 whole entry): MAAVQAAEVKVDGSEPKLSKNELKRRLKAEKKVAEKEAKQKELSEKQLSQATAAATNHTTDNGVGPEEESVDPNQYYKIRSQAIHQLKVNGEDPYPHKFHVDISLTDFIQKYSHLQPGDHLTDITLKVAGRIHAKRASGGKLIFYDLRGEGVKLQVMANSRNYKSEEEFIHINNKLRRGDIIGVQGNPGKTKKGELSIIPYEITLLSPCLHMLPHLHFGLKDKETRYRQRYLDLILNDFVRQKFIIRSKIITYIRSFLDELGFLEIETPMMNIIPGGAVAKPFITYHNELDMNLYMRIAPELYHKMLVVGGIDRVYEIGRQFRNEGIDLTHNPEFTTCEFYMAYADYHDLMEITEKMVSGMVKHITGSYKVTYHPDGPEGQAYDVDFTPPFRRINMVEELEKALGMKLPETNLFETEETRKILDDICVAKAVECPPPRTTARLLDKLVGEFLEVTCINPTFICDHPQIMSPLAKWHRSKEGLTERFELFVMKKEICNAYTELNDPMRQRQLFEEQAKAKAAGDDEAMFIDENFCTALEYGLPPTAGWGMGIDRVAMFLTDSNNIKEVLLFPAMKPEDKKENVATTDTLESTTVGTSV

- Kd (GST-KRS): ~2600 nM
SMILES: CCC(C(=O)O)n1/c(=N/C(=O)c2ccc(C)cc2)sc2ccccc21 (stereo not drawn) [Compound of formula 15, 2-[2-(4-Methyl-benzoylimino)-benzothiazol-3-yl]-butyric acid]
- intracellular protein synthesis (A549 cells): not influenced
- MMP2 activity (MMP2): inhibited
